Data: patent publication US20030176381A1, “Hyaluronic acid in the treatment of cancer” (priority 2002, published 2003)

How the values were obtained:
[1] = tested on: HT-1080 human fibrosarcoma cancer cells; test: MTT cell proliferation, HT-1080; type: cell-based; conditions: 48 h
Description: (§1) Cell proliferation was measured using dimethylthiazoldiphenyltetrazolium (MTT) reduction (Mosman et al. J. Immunol. Methods 65:55, 1983). Unless otherwise stated, 100 Al of 5 mg of MTT (Sigma-Aldrich, St. Louis, Mo., USA) dissolved in 1 ml of PBS was added into each well. After 4 h, medium was removed from each well, 1.0 ml of acid-isopropanol (0.04 N HCI in isopropanol) was added and reduced MTT was solubilized by mixing. Absorbency of the reaction product was measured at a wavelength of 570 nm using a multiplate spectrophotometer reader (Elx800 Model, Bio-TEK Instruments Inc., Winooski, Vt., USA).
(§2) Unless stated otherwise 1.0 x 10^5 cells/ml were seeded in 6-well flat-bottom tissue culture plates and were maintained for 48 h at 370 C in a 5% CO2 atmosphere.
(§3) PC-3, LNCAP and Du-145 human prostate cancer cells; MCF-7 human breast cancer cells; HT-1080 human fibrosarcoma cancer cells; B16F1 murine melanoma cells; and, UMUC-3, RT-4, HT-1376 and T-24 human bladder cancer cells were incubated with 0.8, 8.0 and 80 μg/ml of 5.0-7.5 x 10^5 Da HA (Table 2).

[2] = tested on: PC-3 human prostate cancer cells; test: MTT cell proliferation, PC-3; type: cell-based
Description: as §1, §2, §3
(§4) PC-3. LNCaP and Du-145 human prostate cancer cells were incubated with 8.0 jg/ml of 5.0-7.5 x 105 Da HA or of <1.5 x 10^4 Da HA (Table 3).
(§5) Unless stated otherwise 2.0 x 10^4 cells/ml were seeded in 24-well plates and were maintained for 48 h at 370 C in a 5% CO2 atmosphere. MTT was used at 50 μl per well.
(§6) T-24 human bladder cancer cells, PC-3 and Du-145 human prostate cancer cells, and MCF-7 human breast cancer cell were incubated with saline or with 80.0 jg/ml of 5.0-7.5 x 105 Da HA +1.0 μg/ml of M-DNA (Table 4).
(§7) CD44 expression and the inhibition of proliferation by 5.0-7.5 x 10^5 Da HA were measured using Jurkat T cell leukemia cells; MCF-7 human breast cancer cells; RT-4, T-24, HT-1376 and UMUC-3 human bladder cancer cells; and, PC-3, Du-145 and LNCaP prostate cancer cells (Table 8)

[3] = tested on: LNCaP human prostate cancer cells; test: MTT cell proliferation, LNCaP; type: cell-based; conditions: 48 h
Description: as §1, §2, §3, §4, §7

[4] = tested on: RT-4 human bladder cancer cells; test: MTT cell proliferation, RT-4; type: cell-based
Description: Cell proliferation was measured using dimethylthiazoldiphenyltetrazolium (MTT) reduction (Mosman et al. J. Immunol. Methods 65:55, 1983). Unless otherwise stated, 100 Al of 5 mg of MTT (Sigma-Aldrich, St. Louis, Mo., USA) dissolved in 1 ml of PBS was added into each well. After 4 h, medium was removed from each well, 1.0 ml of acid-isopropanol (0.04 N HCI in isopropanol) was added and reduced MTT was solubilized by mixing. Absorbency of the reaction product was measured at a wavelength of 570 nm using a multiplate spectrophotometer reader (Elx800 Model, Bio-TEK Instruments Inc., Winooski, Vt., USA). […] PC-3, LNCAP and Du-145 human prostate cancer cells; MCF-7 human breast cancer cells; HT-1080 human fibrosarcoma cancer cells; B16F1 murine melanoma cells; and, UMUC-3, RT-4, HT-1376 and T-24 human bladder cancer cells were incubated with 0.8, 8.0 and 80 μg/ml of 5.0-7.5 x 10^5 Da HA (Table 2). […] MTT was used at 50 μl per well. HT-1376, RT-4 and T-24 human bladder cancer cells were incubated with 0.8 pg/ml of 5.0-7.5 x 10^5 Da HA +1.0 ug/ml of MCC (Table 5). […] MCF-7 human breast cancer cells; RT-4, T-24, HT-1376 and UMUC-3 human bladder cancer cells; and, PC-3, Du-145 and LNCaP prostate cancer cells (Table 8)

[5] = tested on: T-24 human bladder cancer cells; test: MTT cell proliferation, T-24; type: cell-based
Description: as §1, §2, §3, §5, §6
(§8) HT-1376, RT-4 and T-24 human bladder cancer cells were incubated with 0.8 pg/ml of 5.0-7.5 x 10^5 Da HA +1.0 ug/ml of MCC (Table 5).
as §7

[6] = tested on: Jurkat T cell leukemia cells; test: MTT cell proliferation, Jurkat T; type: cell-based; conditions: HA 80 μg/ml
Description: as §1, §2, §7

[7] = tested on: UMUC-3 human bladder cancer cells; test: MTT cell proliferation, UMUC-3; type: cell-based; conditions: 48 h
Description: as §1, §2, §3, §7

[8] = tested on: IL-6 production by peripheral blood mononuclear cells; test: IL-6 production by PBMCs (ELISA); type: cell-based, humans
Description: Peripheral blood mononuclear cells (hereinafter, “PBMCs”) were isolated from the blood of 5 healthy humans by Ficoll-Hypaque (Amersham Pharmacia Biotech, Baie d'Urfee, Quebec, Canada) density gradient centrifugation of whole blood. Stimulation of IL-6 and IL-12 production by the immune system cells was determined using the appropriate commercial ELISA (BioSource, Camarillo, CA, USA). Results are expressed as the “fold” (x) increases in cytokine production by treated cells compared to control cells.
PBMCs were incubated with 1 mg/ml of 5.0-7.5 x 105 Da and production of IL-6 and IL-12 was determined (Table 9).
PBMCs, isolated from the blood of individual #1, were incubated with 0.008, 0.04, 0.2 and 1 mg/ml of 5.0-7.5 x 10^5 Da (Table 10)

[9] = tested on: HT-1376 human bladder cancer cells; test: MTT cell proliferation, HT-1376; type: cell-based
Description: as §1, §2, §3, §5, §8, §7

[10] = HA 80.0 μg/ml alone (+ saline), 24-well, Example 6
[11] = HA at 0.8 μg/ml alone (+ saline), 24-well, Example 6

Hyaluronic acid [5.0-7.5 × 10^5 Da HA]
% INHIBITION of cell proliferation ([1]; HA 0.8 μg/ml): 4% | % INHIBITION of cell proliferation ([1]; HA 8.0 μg/ml): 4% | % INHIBITION of cell proliferation ([1]; HA 80.0 μg/ml): 36% | % INHIBITION of cell proliferation ([2]; HA 0.8 μg/ml, 48 h): 15% | % INHIBITION of cell proliferation ([2]; HA 8.0 μg/ml, 48 h, listed as 0.5-7.5 × 10^5 Da HA): 26% | % INHIBITION of cell proliferation [2, 10]: 30% | % INHIBITION of cell proliferation ([3]; HA 0.8 μg/ml): 7% | % INHIBITION of cell proliferation ([3]; HA 8.0 μg/ml, listed as 0.5-7.5 × 10^5 Da HA): 13% | % INHIBITION of cell proliferation ([4]; HA 0.008 μg/ml alone (+ saline)): 0% | % INHIBITION of cell proliferation ([4]; HA 0.08 μg/ml alone (+ saline)): 0% | % INHIBITION of cell proliferation ([4]; HA 0.8 μg/ml, 48 h): 12% | % INHIBITION of cell proliferation ([4]; HA 8.0 μg/ml, 48 h): 13% | % INHIBITION of cell proliferation ([4]; HA 80.0 μg/ml, 48 h): 5% | % INHIBITION of cell proliferation [4, 11]: 13% | % INHIBITION of cell proliferation ([5]; HA 0.8 μg/ml, 48 h): 10% | % INHIBITION of cell proliferation ([5]; HA 8.0 μg/ml, 48 h): 8% | % INHIBITION of cell proliferation [5, 10]: 0% | % INHIBITION of cell proliferation ([5]; HA 80.0 μg/ml, 48 h): 0% | % INHIBITION of cell proliferation [5, 11]: 8% | % inhibition of proliferation [6]: 0% | % INHIBITION of cell proliferation ([7]; HA 0.8 μg/ml): 10% | % INHIBITION of cell proliferation ([7]; HA 8.0 μg/ml): 10% | % INHIBITION of cell proliferation ([7]; HA 80.0 μg/ml): 2% | IL-6 production, fold increase vs control cells ([8]; PBMCs of individual 1, HA 1 mg/ml): 3.8x | IL-6 production, fold increase vs control cells ([8]; PBMCs of individual 2, HA 1 mg/ml): 1.8x | IL-6 production, fold increase vs control cells ([8]; PBMCs of individual 3, HA 1 mg/ml): 4.1x | IL-6 production, fold increase vs control cells ([8]; PBMCs of individual 4, HA 1 mg/ml): 1.4x | IL-6 production, fold increase vs control cells ([8]; PBMCs of individual 5, HA 1 mg/ml): 6.3x | IL-6 production, fold increase vs control cells ([8]; PBMCs of individual #1, HA 0.008 mg/ml): 2.4x | IL-6 production, fold increase vs control cells ([8]; PBMCs of individual #1, HA 0.040 mg/ml): 3.5x | IL-6 production, fold increase vs control cells ([8]; PBMCs of individual #1, HA 0.200 mg/ml): 2.9x | % INHIBITION of cell proliferation ([9]; HA 0.8 μg/ml, 48 h): 0% | % INHIBITION of cell proliferation ([9]; HA 8.0 μg/ml, 48 h): 3% | % INHIBITION of cell proliferation ([9]; HA 80.0 μg/ml, 48 h): 1% | % INHIBITION of cell proliferation [9, 11]: 3%
